Article PMC4919791, “Effect of curcumin analogs onα-synuclein aggregation and cytotoxicity” (Scientific Reports, 2016)

Biological target: T1, α-Syn oligomers (Homo sapiens, UniProt P37840)
T1 construct: made in house; host or cells: Escherichia coli BL21
Assay: TEM of α-Syn oligomers with C1/C6
Assay type: biochemical
Text: It has been shown that α-Syn mutants that form oligomers preferentially are more toxic and kill dopaminergic neurons in animal models as compared to fibril forming mutants. Therefore, compounds that effectively reduce the toxicity of oligomers could be beneficial for the treatment of PD. In the present study, we tested the effect of curcumin and its analogs on the toxicity, hydrophobic exposure and morphology of α-Syn oligomers isolated using size exclusion chromatography (SEC). The toxicity of α-Syn oligomers in presence and absence of curcumin/analogs were initially tested using MTT assay. […] To further validate the effectiveness of C6 to reduce the cytotoxicity of α-Syn oligomers, we also performed LDH cytotoxicity assay and Calcein-AM/Ethidium homodimer-1 staining. […] As previously it has been proposed that curcumin reduces the oligomers toxicity by altering their exposed hydrophobic surface, we also measured the hydrophobic surface exposure of preformed α-Syn oligomers incubated with curcumin and its analogs.
5 μl of various species of α-Syn (50 μM) incubated in absence and presence of curcumin and its analogs were spotted on carbon coated formavar grid and air dried for 10 min. The samples were then washed thrice with autoclaved MQ. The samples were then stained with 10 μl of uranyl formate 1% (w/v) and incubated in dark for 10 min. […]

With COc1cc(/C=C/C(=O)CC(=O)/C=C/c2ccc(OCc3ccccc3)c(OC)c2)ccc1OCc1ccccc1 [C6] the “morphology of α-Syn oligomers (TEM)” value was “significantly altered their morphology”.
